The structures appear in SMILES notation. Where “and” joins values, the source holds several entries; their conditions need not be identical. Equal values may be shown once.

In series [1] the test system is GPR44 vs thromboxane receptor (TP). Set-up: method as in PMID 15179446. The conditions noted are these: cited from earlier work.
A short description of series [2]: Biodistribution in healthy control NOD/SCID mice. Type of series: in vivo. Conditions: i.v. Here is the method:
The uptake of the tracer in the kidney was ~4.00 ± 0.80% ID/g at 30 min p.i, 2.11 ± 1.06% ID/g at 60 min p.i., and 1.33 ± 0.47% ID/g at 90 min p.i. […] Low tracer uptake levels were common in the majority of organs, excluding excretion organs such as the liver. […] Of the time points, 30 min post-injection was chosen to evaluate the next specific GPR44 mouse models.
The biodistribution of [^18F]TM30089 was investigated in healthy NOD/SCID mice at various time points post-injection. Three time points (30 min, 60 min, or 90 min post-injection) and one blocking time point (30 min post-injection) were selected in the biodistribution (n = 4/each group). […] Under general anesthesia, NOD/SCID mice were administered doses of tracer (~3.7 MBq) intravenously through the tail vein. At the above-specified time points, the animals were euthanized, and the organs/tissues of interest were harvested. Organs/tissues were weighed, and the gamma was counted. Radioactive uptakes were calculated and reported as percentage of injected dose per gram (% ID/g) for each organ.

Series [3] deals with T1, GPR44 (1.1 B4 tumor) (Homo sapiens, UniProt Q9Y5Y4).
T1 construct: 1.1 B4 cells were implanted into NOD/SCID mice to generate GPR44-expressing mouse models; endogenous in cells; host or cells: human 1.1 B4 hybrid cell line (human pancreatic islet culture x PANC-1), subcutaneous xenograft in NOD/SCID mice
T1 sequence (Q9Y5Y4 1-395): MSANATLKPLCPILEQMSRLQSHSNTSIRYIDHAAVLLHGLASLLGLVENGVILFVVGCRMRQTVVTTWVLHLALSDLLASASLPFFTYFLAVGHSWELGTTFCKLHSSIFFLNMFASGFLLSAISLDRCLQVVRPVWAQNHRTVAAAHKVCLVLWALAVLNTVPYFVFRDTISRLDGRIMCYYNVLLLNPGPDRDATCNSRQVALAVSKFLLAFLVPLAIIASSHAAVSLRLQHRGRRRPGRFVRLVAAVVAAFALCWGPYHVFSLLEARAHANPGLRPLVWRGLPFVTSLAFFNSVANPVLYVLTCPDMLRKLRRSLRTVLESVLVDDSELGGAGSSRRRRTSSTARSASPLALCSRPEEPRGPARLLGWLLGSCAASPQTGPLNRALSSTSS
Kind of series: Biodistribution in NOD/SCID mice implanted with 1.1 B4 cells, with and without blocking agent. Type of series: in vivo. Conditions: 30 min p.i.; for pancreas uptake: 1.1 B4 model; for tumor uptake: 1.1 B4 tumor. As to the method: NOD/SCID mice (n = 24) were subcutaneously injected with 1.1 B4 cells above their shoulders. Tumors were established 17–21 d after injection.
Under general anesthesia, NOD/SCID mice were administered doses of tracer (~3.7 MBq) intravenously through the tail vein, then the animals were euthanized at 30 min post-injection. Organs/tissues/tumors of interest were harvested, weighed, and gamma-counted. Radioactive uptakes were calculated and reported as percentage of injected dose per gram (% ID/g) for each organ/tissue/tumor.

For series [4], the target named is T2, GPR44 (transplanted human islets) (Homo sapiens, UniProt Q9Y5Y4).
T2 construct: Only transplanted human islets were targeted by the GPR44 radio-probes; tissue Southern California Islet Cell Resources Center; host or cells: human pancreatic islets from healthy adult donors, 500 IEQ transplanted into the renal capsule of NOD/SCID mice
T2 sequence (Q9Y5Y4 1-395): T1 sequence (Q9Y5Y4 1-395)
Kind of series: Biodistribution in NOD/SCID mice with transplanted human islets in a renal capsule. Type of series: in vivo. The conditions noted are these: 500 IEQ human islets, 30 min p.i., two individual mice. Here is the method:
A procedure similar to that of the above murine biodistribution was performed in this biodistribution study. Mice were euthanized at 30 min post-injection, and the organs/tissues of interest were collected.
Human islets with diameters of less than 250 µm were used for transplantation. A total of 500 IEQ human islets were transplanted into the renal capsule of NOD/SCID mice (n = 5) using a well-established standard procedure.
Under general anesthesia, NOD/SCID mice were administered doses of tracer (~3.7 MBq) intravenously through the tail vein, then the animals were euthanized at 30 min post-injection. Organs/tissues/islets of interest were harvested, weighed, and gamma-counted. Radioactive uptakes were calculated and reported as percentage of injected dose per gram (% ID/g) for each organ/tissue/islet.

The subject of series [5] is TP. Set-up: method as in PMID 33800801. Conditions: cited from earlier work.
Series [6] deals with DP1. Set-up: method as in PMID 33800801. The conditions noted are these: cited from earlier work.
Series [7] relates to GPR44. Set-up: method as in PMID 30557325. Conditions: clinical trial, orally administered; cited from earlier work.

As to `O=C(O)CCn1c2c(c3ccccc31)C[C@H](NS(=O)(=O)c1ccc(F)cc1)CC2` [ramatroban], in series [1], the “selectivity for GPR44 than for TP (times less)” value is “approximately 16 times”.
Take `CN(C1CCc2c(c3ccccc3n2CC(=O)O)C1)S(=O)(=O)c1ccc([18F])cc1` (stereo not shown) [[^18F]TM-30089]: the “uptake in other organs (heart, lung, pancreas, spleen)” value in series [2] was “low uptakes”. The kidney uptake in series [2] (30 min p.i.) was ~ 4.00 ± 0.80 % ID/g; in series [2] (60 min p.i.), 2.11 ± 1.06 % ID/g; in series [2] (90 min p.i.), 1.33 ± 0.47 % ID/g. Also, the liver uptake in series [2] (30 min p.i.) stood at 15.31 ± 0.16 % ID/g; in series [2] (60 min p.i.), 8.76 ± 1.60 % ID/g; in series [2] (90 min p.i.) it was 6.62 ± 0.57 % ID/g. For the same molecule, the results for the small intestine uptake in series [2] (30 min p.i.), in series [2] (60 min p.i.) and in series [2] (90 min p.i.) were 10.67 ± 2.13 % ID/g, 10.14 ± 0.47 % ID/g and 9.90 ± 0.26 % ID/g, respectively. Besides, the pancreas uptake in series [3] (blocked group (cold TM30089 1 mg/kg)) stood at 0.26 ± 0.05 % ID/g; in series [3] (non-blocked group), 0.38 ± 0.04 % ID/g. Besides, the tumor uptake came out at 0.24 ± 0.02 % ID/g in series [3] (blocked with cold TM30089 (1 mg/kg)) and 27.81 ± 1.71 % ID/g in series [3] (non-blocked). The “uptake in human islets transplanted into a kidney capsule” value in series [4] is 10.87 % ID/g and 6.21 % ID/g.
Take `CN(C1CCc2c(c3ccccc3n2CC(=O)O)C1)S(=O)(=O)c1ccc(F)cc1` (stereo not shown) [TM-30089, {3-[(4-fluoro-benzenesulfonyl)methyl-amino]-1,2,3,4-tetrahydro-carbazol-9-yl}acetic acid]: the “off-target binding to TP” value in series [5] is “negligible off-target binding”. The “off-target binding to DP1” value in series [6] is “negligible off-target binding”.
Consider `CC(=O)Nc1cccc2c1c(Sc1ccc(Cl)cc1)c(C)n2CC(=O)O` [AZD1981], for which the “improvement in insulin secretion” value in series [7] was “did not show a significant improvement in insulin secretion”.
